Measurements taken from ChEMBL document CHEMBL4507274 (2021).

Tests used:
[1] = test system: Tyrosine-protein kinase ABL1 (Homo sapiens), P00519 [Y253F]; details: Compound concentration 100.0 nM
[2] = target: RAC-alpha serine/threonine-protein kinase (Homo sapiens) (UniProt P31749); details: Compound concentration 100.0 nM
[3] = target: Bone morphogenetic protein receptor type-2 (Homo sapiens) (UniProt Q13873); details: Compound concentration 100.0 nM
[4] = target: Mitotic checkpoint serine/threonine-protein kinase BUB1 (Homo sapiens) (UniProt O43683); details: Compound concentration 100.0 nM
[5] = target: Dual specificity protein kinase CLK2 (Homo sapiens) (UniProt P49760); details: Compound concentration 100.0 nM
Chain of Dual specificity protein kinase CLK2 (Homo sapiens) (P49760 whole entry, looked up): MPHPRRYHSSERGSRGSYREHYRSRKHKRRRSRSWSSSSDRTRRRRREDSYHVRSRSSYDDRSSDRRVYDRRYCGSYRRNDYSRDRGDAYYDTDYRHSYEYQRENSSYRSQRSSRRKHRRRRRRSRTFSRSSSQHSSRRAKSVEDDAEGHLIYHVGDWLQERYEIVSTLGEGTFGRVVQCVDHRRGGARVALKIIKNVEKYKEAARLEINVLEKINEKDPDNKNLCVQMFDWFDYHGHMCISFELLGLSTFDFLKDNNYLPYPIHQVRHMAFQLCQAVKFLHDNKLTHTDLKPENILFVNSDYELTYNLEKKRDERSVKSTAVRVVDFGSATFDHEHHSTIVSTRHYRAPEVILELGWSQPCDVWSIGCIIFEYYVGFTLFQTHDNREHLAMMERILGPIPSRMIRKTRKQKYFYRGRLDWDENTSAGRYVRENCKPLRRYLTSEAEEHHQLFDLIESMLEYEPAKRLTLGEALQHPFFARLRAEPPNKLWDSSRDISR

[6] = target: Macrophage colony-stimulating factor 1 receptor (Homo sapiens) (UniProt P07333); details: Compound concentration 100.0 nM
[7] = target: Casein kinase I isoform gamma-2 (Homo sapiens) (UniProt P78368); details: Compound concentration 100.0 nM
[8] = target: Casein kinase II subunit alpha (Homo sapiens) (UniProt P68400); details: Compound concentration 100.0 nM
Chain of Casein kinase II subunit alpha (Homo sapiens) (P68400 whole entry, looked up): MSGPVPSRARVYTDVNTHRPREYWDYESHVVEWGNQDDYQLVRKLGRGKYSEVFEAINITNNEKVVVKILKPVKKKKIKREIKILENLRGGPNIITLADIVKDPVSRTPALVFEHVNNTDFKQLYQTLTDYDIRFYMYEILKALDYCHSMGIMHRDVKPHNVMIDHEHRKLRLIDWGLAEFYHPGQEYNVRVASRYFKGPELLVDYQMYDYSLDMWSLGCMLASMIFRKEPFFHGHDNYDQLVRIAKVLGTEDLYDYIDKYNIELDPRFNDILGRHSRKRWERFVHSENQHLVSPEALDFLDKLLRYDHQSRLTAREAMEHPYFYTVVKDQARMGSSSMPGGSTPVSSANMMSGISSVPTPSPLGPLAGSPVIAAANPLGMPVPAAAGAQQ

[9] = target: Casein kinase II subunit alpha' (Homo sapiens) (UniProt P19784); details: Compound concentration 100.0 nM
[10] = target: Megakaryocyte-associated tyrosine-protein kinase (Homo sapiens) (UniProt P42679); details: Compound concentration 100.0 nM
[11] = target: Serine/threonine-protein kinase MRCK gamma (Homo sapiens) (UniProt Q6DT37); details: Compound concentration 100.0 nM
[12] = target: Fibroblast growth factor receptor 3 (Homo sapiens) (UniProt P22607); details: Compound concentration 100.0 nM
[13] = test system: Receptor-type tyrosine-protein kinase FLT3 (Homo sapiens), P36888 [UNDEFINED MUTATION]; details: Compound concentration 100.0 nM
[14] = target: G protein-coupled receptor kinase 4 (Homo sapiens) (UniProt P32298); details: Compound concentration 100.0 nM
[15] = target: Rhodopsin kinase GRK7 (Homo sapiens) (UniProt Q8WTQ7); details: Compound concentration 100.0 nM
[16] = target: Serine/threonine-protein kinase ICK (Homo sapiens) (UniProt Q9UPZ9); details: Compound concentration 100.0 nM
[17] = target: Interleukin-1 receptor-associated kinase 1 (Homo sapiens) (UniProt P51617); details: Compound concentration 100.0 nM
[18] = test system: Mast/stem cell growth factor receptor Kit (Homo sapiens), P10721 [L576P]; details: Compound concentration 100.0 nM
[19] = test system: Mast/stem cell growth factor receptor Kit (Homo sapiens), P10721 [V559D]; details: Compound concentration 100.0 nM
[20] = target: Tyrosine-protein kinase Lck (Homo sapiens) (UniProt P06239); details: Compound concentration 100.0 nM
[21] = test system: Leucine-rich repeat serine/threonine-protein kinase 2 (Homo sapiens), Q5S007 [G2019S]; details: Compound concentration 100.0 nM
[22] = target: Tyrosine-protein kinase Lyn (Homo sapiens) (UniProt P07948); details: Compound concentration 100.0 nM
[23] = target: Mitogen-activated protein kinase kinase kinase 13 (Homo sapiens) (UniProt O43283); details: Compound concentration 100.0 nM
Chain of Mitogen-activated protein kinase kinase kinase 13 (Homo sapiens) (O43283 whole entry): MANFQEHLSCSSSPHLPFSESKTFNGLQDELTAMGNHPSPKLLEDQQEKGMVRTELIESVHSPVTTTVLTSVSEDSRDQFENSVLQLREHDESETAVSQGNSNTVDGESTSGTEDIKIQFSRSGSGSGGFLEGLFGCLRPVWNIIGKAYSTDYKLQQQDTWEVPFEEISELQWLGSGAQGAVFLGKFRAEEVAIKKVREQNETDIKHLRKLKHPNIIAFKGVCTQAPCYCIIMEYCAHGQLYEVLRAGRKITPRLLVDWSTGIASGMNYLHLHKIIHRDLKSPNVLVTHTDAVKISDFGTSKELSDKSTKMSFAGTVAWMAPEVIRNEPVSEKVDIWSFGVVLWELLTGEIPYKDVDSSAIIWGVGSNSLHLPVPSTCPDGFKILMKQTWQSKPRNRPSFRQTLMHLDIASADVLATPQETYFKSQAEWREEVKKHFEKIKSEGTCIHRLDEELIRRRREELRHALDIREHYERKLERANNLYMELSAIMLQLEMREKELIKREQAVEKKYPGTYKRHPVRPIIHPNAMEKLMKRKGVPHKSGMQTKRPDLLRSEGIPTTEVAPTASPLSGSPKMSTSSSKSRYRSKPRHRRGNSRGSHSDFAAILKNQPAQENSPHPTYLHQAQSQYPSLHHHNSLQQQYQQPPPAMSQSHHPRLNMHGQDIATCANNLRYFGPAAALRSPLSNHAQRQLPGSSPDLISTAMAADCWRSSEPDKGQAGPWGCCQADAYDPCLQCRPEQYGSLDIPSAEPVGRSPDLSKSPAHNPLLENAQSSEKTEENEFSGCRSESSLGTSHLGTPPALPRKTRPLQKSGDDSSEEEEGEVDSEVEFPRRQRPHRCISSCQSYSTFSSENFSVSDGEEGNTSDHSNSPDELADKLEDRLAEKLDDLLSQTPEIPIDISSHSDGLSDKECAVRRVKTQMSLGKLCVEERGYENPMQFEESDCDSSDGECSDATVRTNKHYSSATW

[24] = target: Mitogen-activated protein kinase kinase kinase 15 (Homo sapiens) (UniProt Q6ZN16); details: Compound concentration 100.0 nM
Chain of Mitogen-activated protein kinase kinase kinase 15 (Homo sapiens) (Q6ZN16 whole entry): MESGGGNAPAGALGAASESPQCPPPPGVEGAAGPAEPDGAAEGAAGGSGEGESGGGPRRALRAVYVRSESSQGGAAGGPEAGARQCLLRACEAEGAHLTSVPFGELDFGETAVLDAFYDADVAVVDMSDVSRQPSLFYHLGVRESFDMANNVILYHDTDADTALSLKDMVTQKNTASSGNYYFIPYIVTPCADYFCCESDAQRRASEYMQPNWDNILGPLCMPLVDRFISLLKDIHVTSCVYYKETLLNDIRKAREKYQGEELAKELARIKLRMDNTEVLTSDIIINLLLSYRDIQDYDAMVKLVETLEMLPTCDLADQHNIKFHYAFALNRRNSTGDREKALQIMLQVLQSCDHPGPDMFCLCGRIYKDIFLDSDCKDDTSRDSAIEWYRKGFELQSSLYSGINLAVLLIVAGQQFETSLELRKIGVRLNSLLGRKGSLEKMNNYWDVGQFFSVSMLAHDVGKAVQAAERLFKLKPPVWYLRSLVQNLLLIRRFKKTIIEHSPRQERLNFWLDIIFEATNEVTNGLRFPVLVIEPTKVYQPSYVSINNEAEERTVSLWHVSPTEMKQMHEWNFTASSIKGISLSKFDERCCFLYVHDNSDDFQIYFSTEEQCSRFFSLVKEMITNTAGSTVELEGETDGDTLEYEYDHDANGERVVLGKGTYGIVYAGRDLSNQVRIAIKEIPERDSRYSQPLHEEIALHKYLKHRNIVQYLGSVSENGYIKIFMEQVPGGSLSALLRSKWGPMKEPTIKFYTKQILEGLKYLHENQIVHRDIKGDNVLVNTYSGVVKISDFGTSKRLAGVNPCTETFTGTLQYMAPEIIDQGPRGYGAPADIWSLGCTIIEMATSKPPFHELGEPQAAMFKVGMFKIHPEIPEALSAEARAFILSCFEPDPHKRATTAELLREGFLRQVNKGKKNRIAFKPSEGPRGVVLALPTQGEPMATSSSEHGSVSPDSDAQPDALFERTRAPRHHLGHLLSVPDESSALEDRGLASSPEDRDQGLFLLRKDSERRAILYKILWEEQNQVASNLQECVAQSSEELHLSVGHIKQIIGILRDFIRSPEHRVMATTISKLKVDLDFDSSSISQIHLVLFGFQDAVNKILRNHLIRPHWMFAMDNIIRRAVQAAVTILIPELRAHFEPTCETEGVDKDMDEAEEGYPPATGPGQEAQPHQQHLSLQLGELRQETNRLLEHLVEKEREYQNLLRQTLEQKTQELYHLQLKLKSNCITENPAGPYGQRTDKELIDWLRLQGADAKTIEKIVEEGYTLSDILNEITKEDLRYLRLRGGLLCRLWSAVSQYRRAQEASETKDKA

[25] = target: Mitogen-activated protein kinase kinase kinase 9 (Homo sapiens) (UniProt P80192); details: Compound concentration 100.0 nM
[26] = target: Serine/threonine-protein kinase Nek6 (Homo sapiens) (UniProt Q9HC98); details: Compound concentration 100.0 nM
Chain of Serine/threonine-protein kinase Nek6 (Homo sapiens) (Q9HC98 whole entry): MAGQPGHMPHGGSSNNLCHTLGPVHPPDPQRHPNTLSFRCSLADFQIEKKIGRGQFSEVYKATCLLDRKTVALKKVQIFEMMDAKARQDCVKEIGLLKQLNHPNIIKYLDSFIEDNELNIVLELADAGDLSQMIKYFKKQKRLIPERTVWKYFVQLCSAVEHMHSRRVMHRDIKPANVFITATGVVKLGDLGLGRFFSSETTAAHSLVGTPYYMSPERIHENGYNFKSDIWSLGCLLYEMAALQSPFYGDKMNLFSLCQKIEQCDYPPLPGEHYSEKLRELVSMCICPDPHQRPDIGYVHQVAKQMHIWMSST

[27] = target: Cyclin-dependent kinase 18 (Homo sapiens) (UniProt Q07002); details: Compound concentration 100.0 nM
[28] = target: Calcium-dependent protein kinase 1 (Plasmodium falciparum) (UniProt P62344); details: Compound concentration 100.0 nM
[29] = test system: Phosphatidylinositol 4,5-bisphosphate 3-kinase catalytic subunit alpha isoform (Homo sapiens), P42336 [E545K]; details: Compound concentration 100.0 nM
[30] = target: Serine/threonine-protein kinase pim-2 (Homo sapiens) (UniProt Q9P1W9); details: Compound concentration 100.0 nM
Chain of Serine/threonine-protein kinase pim-2 (Homo sapiens) (Q9P1W9 whole entry, looked up): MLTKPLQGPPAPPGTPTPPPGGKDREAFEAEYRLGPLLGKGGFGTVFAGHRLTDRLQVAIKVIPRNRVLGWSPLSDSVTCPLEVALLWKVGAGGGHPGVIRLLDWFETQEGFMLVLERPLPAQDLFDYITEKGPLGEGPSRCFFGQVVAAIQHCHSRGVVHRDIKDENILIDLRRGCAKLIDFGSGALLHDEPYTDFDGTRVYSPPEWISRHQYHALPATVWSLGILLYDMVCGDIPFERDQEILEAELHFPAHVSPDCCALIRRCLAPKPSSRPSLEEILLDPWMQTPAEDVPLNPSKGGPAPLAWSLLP

[31] = target: Receptor-interacting serine/threonine-protein kinase 4 (Homo sapiens) (UniProt P57078); details: Compound concentration 100.0 nM
[32] = target: Proto-oncogene tyrosine-protein kinase ROS (Homo sapiens) (UniProt P08922); details: Compound concentration 100.0 nM
[33] = target: Ribosomal protein S6 kinase alpha-3 (Homo sapiens) (UniProt P51812); details: Compound concentration 100.0 nM
[34] = target: Ribosomal protein S6 kinase alpha-6 (Homo sapiens) (UniProt Q9UK32); details: Compound concentration 100.0 nM
Chain of Ribosomal protein S6 kinase alpha-6 (Homo sapiens) (Q9UK32 whole entry): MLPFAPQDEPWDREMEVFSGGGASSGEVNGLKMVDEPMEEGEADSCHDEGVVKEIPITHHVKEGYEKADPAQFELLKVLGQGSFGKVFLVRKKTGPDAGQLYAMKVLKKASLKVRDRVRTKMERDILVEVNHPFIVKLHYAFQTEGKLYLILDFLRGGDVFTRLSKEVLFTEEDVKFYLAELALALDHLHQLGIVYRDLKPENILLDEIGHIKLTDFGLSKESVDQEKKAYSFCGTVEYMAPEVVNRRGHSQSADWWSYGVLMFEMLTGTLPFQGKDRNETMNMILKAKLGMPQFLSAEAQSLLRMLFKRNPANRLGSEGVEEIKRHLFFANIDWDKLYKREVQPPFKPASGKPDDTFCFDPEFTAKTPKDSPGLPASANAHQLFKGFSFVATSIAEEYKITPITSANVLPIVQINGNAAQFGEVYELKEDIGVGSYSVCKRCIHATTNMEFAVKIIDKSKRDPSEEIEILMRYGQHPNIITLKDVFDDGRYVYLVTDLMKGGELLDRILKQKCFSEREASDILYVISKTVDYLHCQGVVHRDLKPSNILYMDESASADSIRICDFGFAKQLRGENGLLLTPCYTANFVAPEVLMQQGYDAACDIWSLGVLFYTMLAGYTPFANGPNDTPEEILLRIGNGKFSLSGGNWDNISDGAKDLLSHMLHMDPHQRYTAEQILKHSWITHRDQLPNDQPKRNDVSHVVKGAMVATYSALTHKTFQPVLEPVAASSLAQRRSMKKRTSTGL

[35] = target: Serine/threonine-protein kinase 16 (Homo sapiens) (UniProt O75716); details: Compound concentration 100.0 nM
[36] = target: Delta-type opioid receptor (Homo sapiens) (UniProt P41143); details: Compound concentration 10.0 uM
[37] = target: Histamine H4 receptor (Homo sapiens) (UniProt Q9H3N8); details: Compound concentration 10.0 uM
[38] = target: GABA-A receptor; anion channel (Rattus norvegicus) (UniProt O09028+P15431+P18506+P18508+P19969+P20236+P23574+P23576+P28471+P28473+P30191+P62813+P63079+P63138+Q91ZM7+Q9ES14); details: Compound concentration 10.0 uM

Chain of RAC-alpha serine/threonine-protein kinase (Homo sapiens) (P31749 whole entry): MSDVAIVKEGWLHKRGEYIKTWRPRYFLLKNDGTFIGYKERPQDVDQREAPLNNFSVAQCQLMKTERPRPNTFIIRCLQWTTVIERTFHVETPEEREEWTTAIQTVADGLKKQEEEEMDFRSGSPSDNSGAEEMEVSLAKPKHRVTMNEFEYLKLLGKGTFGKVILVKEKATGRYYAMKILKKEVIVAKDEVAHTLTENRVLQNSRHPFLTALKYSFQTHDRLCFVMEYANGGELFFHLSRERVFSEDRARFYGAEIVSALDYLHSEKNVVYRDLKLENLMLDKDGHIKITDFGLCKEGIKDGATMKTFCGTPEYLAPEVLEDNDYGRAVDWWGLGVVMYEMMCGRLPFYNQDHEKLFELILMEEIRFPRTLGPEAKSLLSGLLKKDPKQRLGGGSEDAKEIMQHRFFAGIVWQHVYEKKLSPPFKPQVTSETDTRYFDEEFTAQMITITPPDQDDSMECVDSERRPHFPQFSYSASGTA

Cc1c[nH]c2nccc(Oc3c(F)cc(Nc4cc(Cl)nc(N)n4)cc3F)c12 [BAY-549]
inactive: residual activity [1] 81% | residual activity [2] 100% | residual activity [3] 95% | residual activity [4] 75% | residual activity [5] 86% | residual activity [6] 100% | residual activity [7] 94% | residual activity [8] 100% | residual activity [9] 86% | residual activity [10] 88% | residual activity [11] 68% | residual activity [12] 100% | residual activity [13] 54% | residual activity [14] 100% | residual activity [15] 68% | residual activity [16] 79% | residual activity [17] 90% | residual activity [18] 72% | residual activity [19] 90% | residual activity [20] 100% | residual activity [21] 100% | residual activity [22] 81% | residual activity [23] 81% | residual activity [24] 94% | residual activity [25] 89% | residual activity [26] 99% | residual activity [27] 100% | residual activity [28] 91% | residual activity [29] 82% | residual activity [30] 100% | residual activity [31] 84% | residual activity [32] 96% | residual activity [33] 73% | residual activity [34] 95% | residual activity [35] 87% | inhibition [36] 7.96% | inhibition [37] -8.74% | inhibition [38] 4.87%

Cn1cc(Cl)c2c(Oc3c(F)cc(Nc4cc(Cl)nc(N)n4)cc3F)ccnc21 [BAY-4900]
inactive: residual activity [1] 95% | residual activity [2] 75% | residual activity [3] 100% | residual activity [4] 82% | residual activity [5] 87% | residual activity [6] 93% | residual activity [7] 83% | residual activity [8] 98% | residual activity [9] 89% | residual activity [10] 97% | residual activity [11] 100% | residual activity [12] 99% | residual activity [13] 61% | residual activity [14] 100% | residual activity [15] 82% | residual activity [16] 100% | residual activity [17] 95% | residual activity [18] 100% | residual activity [19] 96% | residual activity [20] 100% | residual activity [21] 100% | residual activity [22] 99% | residual activity [23] 99% | residual activity [24] 84% | residual activity [25] 96% | residual activity [26] 100% | residual activity [27] 100% | residual activity [28] 88% | residual activity [29] 78% | residual activity [30] 88% | residual activity [31] 100% | residual activity [32] 100% | residual activity [33] 79% | residual activity [34] 72% | residual activity [35] 100% | inhibition [36] -5.39% | inhibition [37] -9.04% | inhibition [38] 1.6%
